Measured values as given in US12336554B2, “Cannabinoid acid beverage” (CHEMTOR, LP, priority 2020, dated 2025).

Test: Dissolution of THCA crystalline powder in distilled water at different pH
Format: physicochemical
Procedure: 50 mgs of high purity (>99% by weight) THCA crystalline powder was added to 250 ml of distilled water at a pH of 6.5.
The distilled water and THCA from Comparative Example 1 was brought to a pH of 9.5 through the addition of a base and warmed to 40° C.

CCCCCc1cc2c(c(O)c1C(=O)O)[C@@H]1C=C(C)CC[C@H]1C(C)(C)O2 [THCA, tetrahydrocannabinolic acid]
Dissolution in distilled water after heating (50 mgs in 250 ml distilled water, pH 6.5, heated to 100° C.): still did not dissolve | Dissolution in distilled water (50 mgs in 250 ml distilled water, pH 6.5, immediately and after stirring): did not immediately dissolve, not did it dissolve after stirring | Dissolution in alkaline water (50 mgs in 250 ml water, pH 9.5 by addition of a base, warmed to 40° C.): dissolved into solution and produced a clear aqueous solution | Solution stability after cooling (pH 9.5 solution cooled to room temperature): the solution remained clear
